Experiments:
[1] = system: Dictyostelium discoideum; assay: Ability to inhibit growth of Dictostelium discoideum.; format: functional, organism-based
[2] = species: Rattus norvegicus; assay: Bone resorption activity in rats.; format: functional

SMILES	IC50 [1] [µM]	LED [2] [mgP kg-1]
NCCCC(P(=O)(O)O)P(=O)(O)O	44	–
O=P(O)(O)C(NC1CCCCCC1)P(=O)(O)O [INCADRONIC ACID]	–	0.001
O=P(O)(O)C(C1CCc2cccnc21)P(=O)(O)O (stereo unspecified)	38	0.1
O=P(O)(O)C1(P(=O)(O)O)CC2CCCNC2C1 (stereo unspecified)	13	0.01
C[n+]1cccc2c1CC(P(=O)(O)O)(P(=O)(O)O)C2	–	0.1
C[n+]1cccc(CC(O)(P(=O)(O)O)P(=O)(O)O)c1	–	0.0001
Cc1cccnc1NC(P(=O)(O)O)P(=O)(O)O	9	0.001
CCN(c1ccncc1)C(P(=O)(O)O)P(=O)(O)O	–	0.1
O=P(O)(O)C(Nc1ccccn1)P(=O)(O)O	12	0.01
O.O=P(O)(O)C(O)(Cn1ccnc1)P(=O)(O)O [ZOLEDRONIC ACID]	–	0.0001
O=P(O)(O)C(CCc1ccccn1)P(=O)(O)O	150	–
O=P(O)(O)C(O)(Cc1ccccn1)P(=O)(O)O	–	0.001
Cc1cccnc1NCC(P(=O)(O)O)P(=O)(O)O	40	1
C[n+]1ccc(CC(O)(P(=O)(O)O)P(=O)(O)O)cc1	–	0.01
O=P(O)(O)C(O)(CCc1cccnc1)P(=O)(O)O	310	1
Cc1cccc(NC(P(=O)(O)O)P(=O)(O)O)n1	–	0.001
Cc1ccc(NC(P(=O)(O)O)P(=O)(O)O)nc1	–	0.001
O=P(O)(O)C(Nc1ncccn1)P(=O)(O)O	–	0.001
Cc1ccc(NC(P(C)(=O)O)P(=O)(O)O)nc1 (stereo unspecified)	–	1

SMILES	IC50 [1] [µM]	LED [2] [mgP kg-1]
C[n+]1ccccc1CC(O)(P(=O)(O)O)P(=O)(O)O	–	0.01
NCCC(O)(P(=O)(O)O)P(=O)(O)O [PAMIDRONIC ACID]	167	0.03
O=P(O)(O)C(CNc1ccccn1)P(=O)(O)O	15	0.01
Cc1ccnc(NC(P(=O)(O)O)P(=O)(O)O)c1	–	0.001
O=P(O)(O)C(O)(C1CCc2ccncc21)P(=O)(O)O (stereo unspecified)	36	0.01
O=P(O)(O)C(Cc1cccnc1)P(=O)(O)O	–	0.01
O=P(O)(O)C(O)(CCc1ccncc1)P(=O)(O)O	–	1
O=P(O)(O)C(Nc1ccc(Cl)cn1)P(=O)(O)O	–	0.01
O=P(O)(O)C(O)(Cc1cnc2ccccn12)P(=O)(O)O [MINODRONIC ACID]	–	0.0001
CCCCCN(C)CCC(O)(P(=O)(O)O)P(=O)(O)O [IBANDRONIC ACID]	–	0.0001
O=P(O)(O)C(Cc1ccccn1)P(=O)(O)O [PIRIDRONIC ACID]	20	0.01
O=P(O)(O)C1(P(=O)(O)O)Cc2cccnc2C1	1200	–
O=P(O)(O)C(O)(Cc1cccnc1)P(=O)(O)O [RISEDRONIC ACID]	13	0.0003
CCCCCCC[n+]1ccc(CC(O)(P(=O)(O)O)P(=O)(O)O)cc1	–	0.01
CCCCP(=O)(O)C(Nc1ncccc1C)P(=O)(O)O (stereo unspecified)	–	1
CC(O)(P(=O)(O)O)P(=O)(O)O [ETIDRONIC ACID]	380	1
Cc1cccnc1NC(P(C)(=O)O)P(=O)(O)O (stereo unspecified)	–	1
NCCCC(O)(P(=O)(O)O)P(=O)(O)O [ALENDRONIC ACID]	32	0.001
O=P(O)(O)C(O)(Cc1ccncc1)P(=O)(O)O	–	0.01

From ChEMBL document CHEMBL1135492, “An investigation of bone resorption and Dictyostelium discoideum growth inhibition by bisphosphonate drugs” (J Med Chem, 2002)
